What all share (format): cell-based
For assay [1], the target named is sphingosine-1-phosphate receptor 5 (S1P5) (Homo sapiens, UniProt Q9H228). Description: Selectivity: inhibition of cAMP production (HTRF), S1P5 CHO-K1 cells. Conditions: for Emax: CHO-K1, efficacy normalized to maximal efficacy of fimgolimod, read-out: hS1P5 cAMP SPAN; for EC50: inhibition of cAMP production, read-out: hS1P5 cAMP pEC50 (converted). The procedure: (§1) Cell Culturing and Assay Plating Cell lines were cultured in AssayComplete™ Media 6 (DiscoverX Corporation, Cat #: 920018GF2) at 37° C. and 5% CO2 in a humidified CO2 and temperature-controlled incubator. To begin assay plating, cells were washed with Dulbecco's phosphate buffered saline (CellGro, Cat #: 21-031-CV) and lifted from the culturing flask by incubation (37° C., 5 min) with CellStripper (Cellgro, Cat #: 25-056-CI). […] Plated cells were incubated overnight at 37° C. and 5% CO2 in a humidified CO2 and temperature-controlled incubator. Detecting Inhibition of cAMP Production
(§2) S1P3 and S1P5 Agonist-promoted G-protein responses were determined by measuring changes in intracellular cAMP using the HTRF® cAMP HiRange kit (CisBio, Cat #: 62AM6PEJ) based on time-resolved fluorescence resonance energy transfer (TR-FRET) technology. […] Following a 30-minute room temperature incubation the components of the cAMP HiRange kit were added as per the manufacturer's instructions. After an hour incubation at room temperature, plates were analyzed by a BMG PheraStar microplate reader.
(§3) These values are normalized to fimgolimod, a known agonist of the sphingosine-1-phosphate 3 and 5 receptor or CYM5520, a known agonist of the sphingosine-1-phosphate 2 receptor. The tables also include potency values (pEC50) for modulating discrete receptor-mediated activities (inhibition of cAMP production or inositol monophosphate accumulation).
In general terms: Changes in cAMP serve as a functional read-out for many G protein-coupled receptors.

Assay [2] has as its target T1, human sphingosine-1-phosphate receptor 1 (S1P1) (Homo sapiens, UniProt P21453). Description: Inhibition of cAMP production (HTRF cAMP HiRange), S1P1 CHO-K1 cells. The conditions noted are these: for Emax: CHO-K1, efficacy normalized to maximum efficacy of fingolimod, read-out: hS1P1 CAMP SPAN; for EC50: read-out: hS1P1 CAMP pEC50 (converted). The gist of the method:
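CHO-K1 cells co-expressing human S1P1 (C-terminal ProLink tag) and EA-β-arrestin2, plated overnight; after 30 min compound incubation at 37 °C, intracellular cAMP measured by HTRF TR-FRET following 1 h at room temperature. Values normalized to fingolimod.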
Target sequence in this assay (P21453 whole entry): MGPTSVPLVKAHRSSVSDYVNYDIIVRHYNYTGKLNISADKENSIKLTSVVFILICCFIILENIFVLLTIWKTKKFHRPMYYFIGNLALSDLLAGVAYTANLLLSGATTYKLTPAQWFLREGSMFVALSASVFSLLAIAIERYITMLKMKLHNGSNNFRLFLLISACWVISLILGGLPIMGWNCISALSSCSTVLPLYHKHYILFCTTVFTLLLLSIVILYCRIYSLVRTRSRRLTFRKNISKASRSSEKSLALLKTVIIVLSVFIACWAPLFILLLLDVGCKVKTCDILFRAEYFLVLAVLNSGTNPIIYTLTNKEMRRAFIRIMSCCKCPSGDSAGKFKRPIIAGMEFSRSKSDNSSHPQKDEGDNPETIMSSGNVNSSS

For assay [3], the target named is human sphingosine-1-phosphate receptor 3 (S1P3) (Homo sapiens, UniProt Q99500). In words: Selectivity: inhibition of cAMP production (HTRF), S1P3 CHO-K1 cells. The conditions noted are these: for Emax: CHO-K1, efficacy normalized to maximal efficacy of fimgolimod, read-out: hS1P3 cAMP SPAN; for EC50: inhibition of cAMP production, read-out: hS1P3 cAMP pEC50 (converted). The procedure:
as §1, §2, §3

Assay [4] deals with human sphingosine-1-phosphate receptor 2 (S1P2) (Homo sapiens, UniProt O95136). Description: Selectivity: inositol monophosphate production (IP-one), S1P2 CHO-K1 cells. The conditions noted are these: for Emax: CHO-K1, efficacy normalized to maximal efficacy of CYM5520, read-out: hS1P2 IP-one SPAN; for EC50: inositol monophosphate accumulation, read-out: hS1P2 IP-one pEC50 (converted). The protocol: as §1
S1P2 Agonist-promoted G-protein responses were determined by measuring changes in intracellular inositol monophosphate using the IP-one TB kit (CisBio, Cat #: 62IPAPEJ) based on time-resolved fluorescence resonance energy transfer (TR-FRET) technology. AssayComplete™ Cell Plating 2 Reagent was removed and replaced with 1× IP-one stimulation buffer (as per manufacturer's instructions) along with test or control compounds at the desired concentrations.
Following a 60-minute incubation at 37° C. and 5% CO2 in a humidified CO2 and temperature-controlled incubator, the components of the IP-one TB kit were added as per the manufacturer's instructions. After an hour incubation at room temperature, plates were analyzed by a BMG PheraStar microplate reader.
as §3

Assay [5] has as its target T1, human sphingosine-1-phosphate receptor 1 (S1P1). In words: β-Arrestin2 recruitment assay (PathHunter), S1P1 CHO-K1 cells. Conditions: for Emax: efficacy normalized to maximum efficacy of fingolimod, read-out: hS1P1 B-arrestin2 SPAN; for EC50: read-out: hS1P1 B-arrestin2 pEC50 (converted). The gist of the method: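 CHO-K1 cells co-expressing EA-β-arrestin2 and ProLink-tagged human S1P1 plated overnight, then stimulated 60 min at 37 °C. Enzyme-fragment complementation (β-galactosidase) detected after 1 h at room temperature by luminescence; values normalized to fingolimod.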
Target sequence in this assay (P21453 whole entry): as above
Target sequence in this assay (P32121 whole entry partner): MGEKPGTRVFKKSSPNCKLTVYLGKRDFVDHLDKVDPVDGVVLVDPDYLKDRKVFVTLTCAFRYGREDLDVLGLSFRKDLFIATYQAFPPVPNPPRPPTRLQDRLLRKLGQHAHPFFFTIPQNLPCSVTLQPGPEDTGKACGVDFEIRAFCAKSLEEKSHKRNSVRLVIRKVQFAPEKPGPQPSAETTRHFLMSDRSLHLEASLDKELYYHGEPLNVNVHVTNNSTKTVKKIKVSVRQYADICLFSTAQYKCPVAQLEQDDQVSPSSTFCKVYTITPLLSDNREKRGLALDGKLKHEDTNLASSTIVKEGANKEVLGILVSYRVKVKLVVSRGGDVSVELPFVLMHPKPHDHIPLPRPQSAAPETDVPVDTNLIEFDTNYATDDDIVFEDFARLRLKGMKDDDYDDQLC

Setting [6] is: inhibition of cAMP production, potency.
[7] abbreviates: CHO-K1, β-arrestin2 recruitment.
Where [8] appears, read: β-arrestin2 recruitment, potency.
Setting [9] is: inhibition of cAMP production, S1P1.

human sphingosine-1-phosphate receptor 3 (S1P3), sequence (Q99500 whole entry): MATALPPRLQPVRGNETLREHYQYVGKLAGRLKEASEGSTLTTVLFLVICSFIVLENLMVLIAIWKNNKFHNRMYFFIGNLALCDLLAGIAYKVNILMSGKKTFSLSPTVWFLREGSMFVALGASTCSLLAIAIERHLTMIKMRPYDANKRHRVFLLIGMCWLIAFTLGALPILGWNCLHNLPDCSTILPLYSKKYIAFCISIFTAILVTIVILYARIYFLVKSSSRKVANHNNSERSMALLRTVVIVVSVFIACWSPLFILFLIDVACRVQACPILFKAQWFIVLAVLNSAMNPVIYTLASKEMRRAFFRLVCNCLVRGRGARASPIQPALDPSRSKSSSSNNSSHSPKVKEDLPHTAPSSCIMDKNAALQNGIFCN
sphingosine-1-phosphate receptor 5 (S1P5), sequence (Q9H228 whole entry): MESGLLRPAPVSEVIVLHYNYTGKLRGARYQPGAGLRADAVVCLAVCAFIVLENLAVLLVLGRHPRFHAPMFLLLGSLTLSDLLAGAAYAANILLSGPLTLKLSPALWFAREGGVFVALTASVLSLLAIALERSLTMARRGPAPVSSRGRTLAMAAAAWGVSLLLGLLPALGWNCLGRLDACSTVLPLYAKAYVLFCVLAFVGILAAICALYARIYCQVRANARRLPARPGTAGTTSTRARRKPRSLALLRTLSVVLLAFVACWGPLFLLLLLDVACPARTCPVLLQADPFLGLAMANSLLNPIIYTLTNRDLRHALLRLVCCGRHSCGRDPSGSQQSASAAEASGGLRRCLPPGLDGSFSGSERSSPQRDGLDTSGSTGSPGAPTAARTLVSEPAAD
human sphingosine-1-phosphate receptor 2 (S1P2), sequence (O95136 whole entry): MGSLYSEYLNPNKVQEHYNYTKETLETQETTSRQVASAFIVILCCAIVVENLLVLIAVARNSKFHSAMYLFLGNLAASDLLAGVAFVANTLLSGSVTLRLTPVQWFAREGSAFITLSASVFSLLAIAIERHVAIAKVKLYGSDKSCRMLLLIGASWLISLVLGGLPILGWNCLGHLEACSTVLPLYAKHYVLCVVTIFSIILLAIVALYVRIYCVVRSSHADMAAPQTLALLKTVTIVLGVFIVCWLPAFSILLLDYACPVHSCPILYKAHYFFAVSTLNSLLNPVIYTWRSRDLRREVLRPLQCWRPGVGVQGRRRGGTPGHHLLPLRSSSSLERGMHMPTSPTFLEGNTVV

As for `CCC1(CC)CC(=O)c2cc(-c3nc(-c4ccc5[nH]ncc5c4)no3)ccc2O1` [Compound 152, 6-(3-(1H-indazol-5-yl)-1,2,4-oxadiazol-5-yl)-2,2-diethyl-chroman-4-one], the Emax in assay [1] is < 50%; in assay [2] (inhibition of cAMP production), > 75%; in assay [3], < 50%; in assay [4], < 50%; in assay [5] (setting [7]) it was > 75%. In addition, the EC50 in assay [1] was > 10 µM; in assay [2] (setting [6]), > 0.316 µM; in assay [3], > 10 µM; in assay [4], > 10 µM; in assay [5] (setting [8]), < 10 µM.

Turning to `CC(C)n1nnc2cc(-c3nc4c(o3)Cc3ccccc3-4)ccc21` [Compound 219, 5-{8H-indeno[1,2-d][1,3]oxazol-2-yl}-1-(propan-2-yl)-1H-1,2,3-benzotriazole], the Emax in assay [1] was < 50%; in assay [2] (inhibition of cAMP production), < 75%; in assay [3], < 50%; in assay [4], < 50%; in assay [5] (setting [7]) it was > 75%. The EC50 in assay [1] is > 10 µM; in assay [2] (setting [6]), < 0.316 µM; in assay [3] it was > 10 µM; in assay [4] it was < 10 µM; in assay [5] (setting [8]), < 10 µM.

As to `CC(C)Nc1ccc(-c2nc(-c3ccc4oc(=O)[nH]c4c3)no2)cc1C#N` [Compound 422, 2-(isopropylamino)-5-(3-(2-oxo-2,3-dihydrobenzo[d]oxazol-5-yl)-1,2,4-oxadiazol-5-yl)benzonitrile], the Emax was > 75% in assay [2], < 50% in assay [3], < 50% in assay [4] and > 75% in assay [5] (CHO-K1). Further, the EC50 in assay [2] (setting [9]) is < 0.316 µM; in assay [3] it was < 10 µM; in assay [4], < 10 µM; in assay [5] (β-arrestin2 recruitment, S1P1) it was < 10 µM.

Turning to `CCC1(CC)CC(=O)c2cc(-c3nc(-c4ccc5[nH]c(=O)oc5c4)no3)ccc2O1` [Compound 445, 6-(5-(2,2-diethyl-4-oxochroman-6-yl)-1,2,4-oxadiazol-3-yl)benzo[d]oxazol-2(3H)-one], the Emax in assay [2] was > 75%; in assay [3], < 50%; in assay [4], < 50%; in assay [5] (CHO-K1), > 75%. Besides, the EC50 in assay [2] (setting [9]) is < 0.316 µM; in assay [3], > 10 µM; in assay [4] it was < 10 µM; in assay [5] (β-arrestin2 recruitment, S1P1), < 10 µM.

Turning to `CC(C)Nc1ccc(-c2nc(-c3ccc4c(c3)NC(=O)C4)no2)cc1C#N` [Compound 496, 2-(isopropylamino)-5-(3-(2-oxoindolin-6-yl)-1,2,4-oxadiazol-5-yl)benzonitrile], the Emax was > 75% in assay [2], < 50% in assay [3], < 50% in assay [4] and > 75% in assay [5] (CHO-K1). The EC50 in assay [2] (setting [9]) is < 0.316 µM; in assay [3], > 10 µM; in assay [4], > 10 µM; in assay [5] (β-arrestin2 recruitment, S1P1), < 10 µM.

Regarding `Cn1cnc2ccc(-c3nnc(-c4ccc(NC(C)(C)CO)c(C#N)c4)o3)cc21` [Compound 634, 2-[(1-hydroxy-2-methylpropan-2-yl)amino]-5-[5-(1-methyl-1H-1,3-benzodiazol-6-yl)-1,3,4-oxadiazol-2-yl]benzonitrile], the Emax in assay [2] and in assay [5] (CHO-K1) was < 75% in each case. The EC50 was > 0.316 µM in assay [2] (setting [9]) and > 10 µM in assay [5] (β-arrestin2 recruitment, S1P1).

Regarding `Cn1cnc2ccc(-c3nnc(-c4ccc(NCC(F)(F)CO)c(C#N)c4)o3)cc21` [Compound 635, 2-[(2,2-difluoro-3-hydroxypropyl)amino]-5-[5-(1-methyl-1H-1,3-benzodiazol-6-yl)-1,3,4-oxadiazol-2-yl]benzonitrile], the Emax in assay [2] and in assay [5] (CHO-K1) was < 75% each time. For the same molecule, the EC50 in assay [2] (setting [9]) is < 0.316 µM; in assay [5] (β-arrestin2 recruitment, S1P1) it was < 10 µM.

Take `CC(C)n1nnc2cc(-c3noc(-c4cccc5c4CCC5O)n3)ccc21` (stereo not drawn) [Compound 636, 4-{3-[1-(propan-2-yl)-1H-1,2,3-benzotriazol-5-yl]-1,2,4-oxadiazol-5-yl}-2,3-dihydro-1H-inden-1-ol]: the Emax in assay [2] and in assay [5] (CHO-K1) was > 75% in each case. For the same molecule, the EC50 in assay [2] (setting [9]) was < 0.316 µM; in assay [5] (β-arrestin2 recruitment, S1P1), < 10 µM.

For `CC(C)Nc1ccc(-c2nnc(-c3ccc4oc(=O)[nH]c4c3)o2)cc1C#N` [Compound 637, 5-[5-(2-oxo-2,3-dihydro-1,3-benzoxazol-5-yl)-1,3,4-oxadiazol-2-yl]-2-[(propan-2-yl)amino]benzonitrile], the Emax in assay [2] and in assay [5] (CHO-K1) was > 75% throughout. For the same molecule, the EC50 is < 0.316 µM in assay [2] (setting [9]) and < 10 µM in assay [5] (β-arrestin2 recruitment, S1P1).

Regarding `CC(C)Nc1ccc(-c2nnc(-c3ccc4c(c3)C(=O)NCC4)o2)cc1C#N` [Compound 638, 5-[5-(1-oxo-1,2,3,4-tetrahydroisoquinolin-7-yl)-1,3,4-oxadiazol-2-yl]-2-[(propan-2-yl)amino]benzonitrile], the Emax in assay [2] and in assay [5] (CHO-K1) was < 75% in each case. For the same molecule, the EC50 in assay [2] (setting [9]) was < 0.316 µM; in assay [5] (β-arrestin2 recruitment, S1P1), > 10 µM.

With `CCC1(CC)CC(=O)c2cc(-c3nc(-c4ccncn4)no3)ccc2O1` [Compound 639, 2,2-diethyl-6-(3-(pyrimidin-4-yl)-1,2,4-oxadiazol-5-yl)chroman-4-one], the Emax is < 75% in assay [2] and > 75% in assay [5] (CHO-K1). Moreover, the EC50 in assay [2] (setting [9]) is > 0.316 µM; in assay [5] (β-arrestin2 recruitment, S1P1) it was > 10 µM.

Regarding `CCC1(CC)CC(=O)c2cc(-c3nc(-c4ncccn4)no3)ccc2O1` [Compound 640, 2,2-diethyl-6-(3-(pyrimidin-2-yl)-1,2,4-oxadiazol-5-yl)chroman-4-one], the Emax in assay [2] was > 75%; in assay [5] (CHO-K1), < 75%. The EC50 in assay [2] (setting [9]) was > 0.316 µM; in assay [5] (β-arrestin2 recruitment, S1P1), > 10 µM.

Take `CC(C)(CO)n1nnc2cc(-c3noc(-c4ccc5nc[nH]c5c4)n3)ccc21` [Compound 642, 2-(5-(5-(1H-benzo[d]imidazol-6-yl)-1,2,4-oxadiazol-3-yl)-1H-benzo[d][1,2,3]triazol-1-yl)-2-methylpropan-1-ol]: the Emax in assay [2] and in assay [5] (CHO-K1) was < 75% each time. Moreover, the EC50 in assay [2] (setting [9]) was > 0.316 µM.

As to `O=C1CNc2ccc(-c3nc(-c4cn[nH]c4)no3)cc2N1` [Compound 645, 7-[3-(1H-pyrazol-4-yl)-1,2,4-oxadiazol-5-yl]-1,2,3,4-tetrahydro-quinoxalin-2-one], the Emax in assay [2] was > 75%; in assay [5] (CHO-K1), < 75%. In addition, the EC50 in assay [2] (setting [9]) was > 0.316 µM; in assay [5] (β-arrestin2 recruitment, S1P1), > 10 µM.

`COc1ccc(-c2noc(-c3ccc4c(c3)nnn4CC(C)(C)O)n2)c(C)c1` [Compound 647, 1-{5-[3-(4-methoxy-2-methylphenyl)-1,2,4-oxadiazol-5-yl]-1H-1,2,3-benzotriazol-1-yl}-2-methylpropan-2-ol]: the EC50 in assay [2] (setting [9]) is < 0.316 µM. For the same molecule, the “hS1P1 B-arrestin2 pEC50” value in assay [5] (β-arrestin2 recruitment, S1P1) is listed as >5.

The values above are taken from patent US20230114241A1, “METHODS OF TREATING EPILEPSY USING THE SAME” (Trevena, Inc., priority 2019, published 2023).
